Measurements published in US8507493B2 (AbbVie Inc., priority 2009, dated 2013).
pKi: −log10 of the molar value. Like-named read-outs stand apart in the source and are kept apart here.

How the values were obtained:
human 11β-HSD1 = target: T1, human 11β-HSD1 (Homo sapiens, UniProt P28845); test: Human 11β-HSD1 enzymatic SPA assay; format: biochemical; conditions: truncated (24-287aa) human 11β-HSD1, apparent Ki from IC50 by Cheng-Prusoff
T1 construct: truncated (24-287aa) human 11β-HSD1 enzyme; made in house; host or cells: E. coli (lysate, not purified)
Description: The ability of test compounds to inhibit human 11β-HSD1 enzymatic activity in vitro was evaluated in a Scintillation Proximity Assay (SPA). Tritiated-cortisone substrate, NADPH cofactor and titrated compound were incubated with truncated (24-287aa) human 11β-HSD1 enzyme at room temperature to allow the conversion to cortisol to occur. The reaction was stopped by adding a non-specific 11β-HSD inhibitor, glycyrrhetinic acid. The tritiated cortisol was captured by a mixture of an anti-cortisol monoclonal antibody and SPA beads coated with anti-mouse antibodies. The reaction plate was shaken at room temperature and the radiolabel bound to SPA beads was then measured on a scintillation counter. The 11β-HSD1 assay was carried out in 96-well microtiter plates in a total volume of […]. To start the assay, 188 μL of master mix which contained 75 nM ^3H-cortisone, 100 nM cortisone and 181 μM NADPH was added to the wells. In order to drive the reaction in the 11β-reductase direction, 1 mM glucose-6-phosphate (G-6-P) and 1 U/mL G-6-P dehydrogenase were also added as a NADPH generating system. Solid compound was dissolved in dimethyl sulfoxide to make a 10 mM stock followed by a subsequent 10-fold serial dilution with dimethyl sulfoxide. Each compound solution in dimethyl sulfoxide was 10-fold diluted in Tris/EDTA buffer (pH 7.4). 22 μL of titrated compound were then added in duplicate to the substrate. Reactions were initiated by the addition of 10 μL of 0.1 mg/mL E. coli lysates overexpressing 11β-HSD1 enzyme. After shaking and incubating plates for 30 minutes at room temperature, reactions were stopped by adding 10 μL of 1 mM glycyrrhetinic acid. The product, tritiated cortisol, was captured by adding 10 μL of 1 μM monoclonal mouse anti-cortisol antibodies and 50 μL of SPA beads coated with anti-mouse antibodies. After shaking for 30 minutes, plates were read in a Microbeta scintillation counter. Percent inhibition was calculated based on the background and the maximal signal. Wells that contained substrate without compound or enzyme were used as the background, while the wells that contained substrate and enzyme without any compound were considered as maximal signal. Percent of inhibition of each compound was calculated relative to the maximal signal and IC50 curves were generated. Assuming competitive inhibition the Cheng-Prusoff equation was used to calculate apparent Ki values from the IC50 values. This assay was applied to 11β-HSD2 as well, whereby 6 nM tritiated cortisol and 250 uM NAD^+ were used as substrate and cofactor, respectively.

patients = conditions: cited from earlier work

T1 sequence (P28845 24-287): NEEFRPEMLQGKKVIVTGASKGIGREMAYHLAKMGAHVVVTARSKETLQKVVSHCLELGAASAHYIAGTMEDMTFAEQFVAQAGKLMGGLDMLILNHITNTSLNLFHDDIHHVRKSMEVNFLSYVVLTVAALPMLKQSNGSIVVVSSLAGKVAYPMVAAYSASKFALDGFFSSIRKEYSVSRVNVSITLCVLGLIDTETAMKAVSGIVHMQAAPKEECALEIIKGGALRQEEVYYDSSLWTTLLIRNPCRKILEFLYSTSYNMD

SMILES | pKi (human 11β-HSD1) | lowered intraocular pressure (patients; treatment for 4 days) | lowered intraocular pressure (patients; treatment for 7 days)
CC(C)(Cc1ccc(Cl)cc1)C(=N)NC1C2CC3CC1CC(O)(C3)C2 (stereo not shown) [Example 22, 3-(4-Chlorophenyl)-N-[(E)-5-hydroxy-2-adamantyl]-2,2-dimethylpropanimidamide] | < 6.00 |  | 
CC(C)(OCc1ccc(C(F)(F)F)cc1)C(=NC#N)NC1C2CC3CC1CC(C(=O)O)(C3)C2 (stereo not shown) [Example 24, (E)-4-[((1E)-N-Cyano-2-methyl-2-{[4-(trifluoromethyl)benzyl]oxy}propanimidoyl)amino]adamantane-1-carboxylic acid] | 7.00 to 8.00 |  | 
CC(C)(Oc1ccccn1)/C(=N\C#N)NC1C2CC3CC1CC(S(C)(=O)=O)(C3)C2 (stereo not shown) [Example 77, (1E)-N′-cyano-2-methyl-N-[(E)-5-(methylsulfonyl)adamantan-2-yl]-2-(pyridin-2-yloxy)propanimidamide] | 6.00 to 7.00 |  | 
CC(C)(Oc1ccc(Cl)cc1F)/C(=N\C#N)NC1C2CC3CC1CC(C(N)=O)(C3)C2 (stereo not shown) [Example 74, (E)-4-{[(1E)-2-(4-chloro-2-fluorophenoxy)-N-cyano-2-methylpropanimidoyl]amino}adamantane-1-carboxamide] | ≥ 8.00 |  | 
CC(C)(Oc1ccccc1)C(=NC#N)NC12CCC(C(N)=O)(CC1)C2 [Example 81, 4-{[N-cyano-2-methyl-2-phenoxypropanimidoyl]amino}bicyclo[2.2.1]heptane-1-carboxamide] | < 6.00 |  | 
CC1(C)/C(=N/C#N)N([C@@H]2[C@@H]3C[C@@H]4C[C@H]2C[C@@](S(C)(=O)=O)(C4)C3)CC1COc1ccc(C#N)cn1 (stereo partly shown) [Example 33, (2Z)-4-{[(5-Cyanopyridin-2-yl)oxy]methyl}-3,3-dimethyl-1-[(E)-5-(methylsulfonyl)-2-adamantyl]pyrrolidin-2-ylidenecyanamide] | 6.00 to 7.00 |  | 
CC(C)(Oc1ccccc1F)/C(=N\C#N)NC1C2CC3CC1CC(C#N)(C3)C2 (stereo not shown) [Example 78, (1E)-N′-cyano-N-[(E)-5-cyanoadamantan-2-yl]-2-(2-fluorophenoxy)-2-methylpropanimidamide] | 7.00 to 8.00 |  | 
CC(C)(Oc1ccccc1F)C(=NC#N)NC1C2CC3CC1CC(S(N)(=O)=O)(C3)C2 (stereo not shown) [Example 79, (1E)-N′-cyano-2-(2-fluorophenoxy)-2-methyl-N-[(E)-5-sulfamoyladamantan-2-yl]propanimidamide] | 7.00 to 8.00 |  | 
CC(C)(Oc1ccccc1F)C(=NC#N)NC1C2CC3CC1CC(O)(C3)C2 (stereo not shown) [Example 80, (1E)-N′-cyano-2-(2-fluorophenoxy)-N-[(E)-5-hydroxyadamantan-2-yl]-2-methylpropanimidamide] | ≥ 8.00 |  | 
CC1(C)[C@@H](OC(=O)CCC(=O)O)CC[C@]2(C)[C@H]3C(=O)C=C4[C@@H]5C[C@@](C)(C(=O)O)CC[C@]5(C)CC[C@@]4(C)[C@]3(C)CC[C@@H]12 [carbenoxolone] |  | 10% | 17%
CC(C)(Oc1ccc(Cl)cc1)C(=NC#N)NC1C2CC3CC1CC(C(N)=O)(C3)C2 (stereo not shown) [Example 14, (E)-4-{[(1E)-2-(4-Chlorophenoxy)-N-cyano-2-methylpropanimidoyl]amino}adamantane-1-carboxamide] | ≥ 8.00 |  | 
CC(C)(Oc1ccc(Cl)cc1)C(=NC#N)NC1CCCCCCC1 [Example 41, 2-(4-Chlorophenoxy)-N′-cyano-N-cyclooctyl-2-methylpropanimidamide] | 7.00 to 8.00 |  | 
CC(C)(Oc1ccc(Cl)cc1)C(=NC#N)NC1C2CC3CC1CN(C3)C2 (stereo not shown) [Example 39, (1E)-N-[(4s)-1-Azatricyclo[3.3.1.1^3,7]dec-4-yl]-2-(4-chlorophenoxy)-N′-cyano-2-methylpropanimidamide] | < 6.00 |  | 
CC(C)(Oc1ccc(Cl)cn1)C(=NC#N)NC1C2CC3CC1CC(S(C)(=O)=O)(C3)C2 (stereo not shown) [Example 67, (1E)-2-[(5-chloropyridin-2-yl)oxy]-N-cyano-2-methyl-N-[(E)-5-(methylsulfonyl)adamantan-2-yl]propanimidamide] | 6.00 to 7.00 |  | 
N#CN=C(COc1ccc(Cl)cc1)NC1C2CC3CC1CC(O)(C3)C2 (stereo not shown) [Example 7, (1E)-2-(4-Chlorophenoxy)-N′-cyano-N-[(E)-5-hydroxy-2-adamantyl]ethanimidamide] | < 6.00 |  | 
COC(=O)C12CC3CC(C1)C(NC(=NC#N)C(C)(C)Oc1ccc(Cl)cc1)C(C3)C2 (stereo not shown) [Example 11, Methyl(E)-4-{[(1E)-2-(4-chlorophenoxy)-N-cyano-2-methylpropanimidoyl]amino}adamantane-1-carboxylate] | 6.00 to 7.00 |  | 
CC(C)(Oc1ccccc1)C(=NC#N)NC12CCC(C(F)F)(CC1)C2 [Example 89, N′-cyano-N-[4-(difluoromethyl)bicyclo[2.2.1]hept-1-yl]-2-methyl-2-phenoxypropanimidamide] | 7.00 to 8.00 |  | 
CON=C(NC1C2CC3CC1CC(S(C)(=O)=O)(C3)C2)C(C)(C)Oc1ccc(Cl)cc1 (stereo not shown) [Example 13, (1E)-2-(4-Chlorophenoxy)-N-methoxy-2-methyl-N-[(E)-5-(methylsulfonyl)-2-adamantyl]propanimidamide] | 6.00 to 7.00 |  | 
